Values quoted from earlier work, collected in PMC7527728, “CPSF6-Dependent Targeting of Speckle-Associated Domains Distinguishes Primate from Nonprimate Lentiviral Integration” (mBio, 2020).

Experiments:
HIV-1 capsid hexamers = system: HIV-1 capsid hexamers; set-up: method as in PMID 25518861; settings: more efficiently than the NTD
A77V capsid nanotubes = settings: in vitro, as efficiently as WT capsid
Source text: (§1) The 5.2% reduction in genic HIV-1 integration targeting in Jurkat CKD cells was noticeably less than the 22.1% reduction in CKO cells (compare Fig. 4A and Fig. 3A). While the reason for this difference is unclear, it seemed possible that the residual level of CPSF6 protein that persisted in CKD cells (Fig. 2D) could be a contributing factor. We accordingly next mapped integration sites of N74D and A77V capsid mutant viruses in Jurkat T cells. N74D and A77V capsid nanotubes bound CPSF6 ∼5% and 30%, respectively, as efficiently as WT capsid complexes in vitro ([43]).

N74D capsid nanotubes = settings: in vitro
Source text: as §1

Substance	binding to capsid hexamers relative to NTD (HIV-1 capsid hexamers)	CPSF6 binding relative to WT capsid complexes (A77V capsid nanotubes) [%]	CPSF6 binding relative to WT capsid complexes (N74D capsid nanotubes) [%]
CPSF6 peptide: CPSF6 peptide binding HIV-1 capsid hexamers, ref 45	approximately 10 -fold	–	–
CPSF6: cleavage and polyadenylation specificity factor 6	–	~30	~5
